From ChEMBL document CHEMBL3608248, “Dimeric Macrocyclic Antagonists of Inhibitor of Apoptosis Proteins for the Treatment of Cancer” (ACS Med Chem Lett, 2015)
≈ marks a conversion by molar mass, not a printed value. One block for each compound: values may come before it. Calls of active or inactive are those of the source. The calls are words filed in the database; no cut-off is given here.

How the values were obtained:
cells = conditions: Homo sapiens, A875, 72 h
in vivo [1] = conditions: Balb/C, mouse, iv, 1 mg/kg
in vitro [2] = conditions: dog, liver microsomes
in vitro [3] = conditions: human, plasma
animal or person [4] = conditions: Homo sapiens, A875, ip, 72 h, read-out: TGI
in vivo [5] = conditions: Balb/C, mouse, iv, 1 mg/kg; remark: listed apart in the source
in vivo [6] = conditions: dog, iv, 0.3 mg/kg
A875 = conditions: Homo sapiens, 50 mg/kg
physchem = conditions: buffer, pH 7.4
in vitro [7] = conditions: human, liver microsomes
hERG = hERG (Homo sapiens, UniProt Q12809); experiment: in vitro
in vitro [8] = conditions: rat, plasma
HCT-116/VM46 = experiment: cells; conditions: Homo sapiens
in vivo [9] = conditions: Balb/C, mouse, iv, 1 mg/kg; remark: listed apart in the source
in vitro [10] = conditions: dog, plasma
animal or person [11] = conditions: Homo sapiens, A875, ip, 72 h, read-out: TGI; remark: listed apart in the source
in vivo [12] = conditions: dog, iv, 0.3 mg/kg; remark: listed apart in the source
in vivo [13] = conditions: rat, iv, 1 mg/kg
in vitro [14] = conditions: mouse, plasma
in vitro [15] = conditions: rat, liver microsomes
HCT-116 = experiment: cells; conditions: Homo sapiens
in vivo [16] = conditions: dog, iv, 0.3 mg/kg; remark: listed apart in the source
in vitro [17] = conditions: mouse, liver microsomes
in vivo [18] = conditions: rat, iv, 1 mg/kg; remark: listed apart in the source
in vivo [19] = conditions: rat, iv, 1 mg/kg; remark: listed apart in the source
animal or person [20] = conditions: Homo sapiens, A875, ip, read-out: TGI
in vivo [21] = conditions: Balb/C, mouse, iv, 1 mg/kg; remark: listed apart in the source
Mus musculus = organism: Mus musculus; conditions: in vivo, iv, 1 mg/kg, 7 h

Chain of hERG (Q12809 whole entry): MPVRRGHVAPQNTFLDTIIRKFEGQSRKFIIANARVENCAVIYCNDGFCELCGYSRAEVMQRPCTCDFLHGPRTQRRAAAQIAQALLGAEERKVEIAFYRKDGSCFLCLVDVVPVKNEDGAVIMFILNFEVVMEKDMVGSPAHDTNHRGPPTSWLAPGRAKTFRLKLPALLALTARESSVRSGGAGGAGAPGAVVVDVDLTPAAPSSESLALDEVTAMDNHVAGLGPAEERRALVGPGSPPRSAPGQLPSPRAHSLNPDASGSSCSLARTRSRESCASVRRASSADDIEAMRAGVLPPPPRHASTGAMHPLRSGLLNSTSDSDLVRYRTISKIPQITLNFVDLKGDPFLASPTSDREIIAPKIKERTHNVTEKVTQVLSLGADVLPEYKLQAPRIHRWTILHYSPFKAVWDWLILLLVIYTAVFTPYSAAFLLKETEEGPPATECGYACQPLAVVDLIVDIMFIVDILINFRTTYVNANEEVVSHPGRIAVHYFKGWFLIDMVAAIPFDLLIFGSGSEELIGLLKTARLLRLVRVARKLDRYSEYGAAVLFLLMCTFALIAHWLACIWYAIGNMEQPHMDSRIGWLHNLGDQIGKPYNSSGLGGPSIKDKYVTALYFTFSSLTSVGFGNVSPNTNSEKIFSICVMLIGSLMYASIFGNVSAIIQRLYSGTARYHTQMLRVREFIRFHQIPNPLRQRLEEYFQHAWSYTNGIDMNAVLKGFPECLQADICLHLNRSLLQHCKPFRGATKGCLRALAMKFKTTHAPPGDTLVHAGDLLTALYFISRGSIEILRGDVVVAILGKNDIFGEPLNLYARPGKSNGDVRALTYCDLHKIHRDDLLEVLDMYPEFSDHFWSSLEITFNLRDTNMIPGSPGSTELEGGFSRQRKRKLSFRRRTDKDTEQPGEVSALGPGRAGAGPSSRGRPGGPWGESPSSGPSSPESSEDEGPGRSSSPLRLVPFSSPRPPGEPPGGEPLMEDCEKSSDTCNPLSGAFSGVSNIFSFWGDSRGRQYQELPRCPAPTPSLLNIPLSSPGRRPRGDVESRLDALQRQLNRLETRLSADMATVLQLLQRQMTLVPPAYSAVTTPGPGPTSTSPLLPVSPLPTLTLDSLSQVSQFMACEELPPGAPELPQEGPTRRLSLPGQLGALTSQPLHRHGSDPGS

SMILES: CN[C@@H](C)C(=O)N[C@H](C(=O)N1C[C@@H]2C[C@H]1C(=O)N[C@@H](Cc1ccc3ccccc3c1)C(=O)N[C@H](C(=O)O)Cc1ccc(cc1)OCc1cn(nn1)[C@H]1C[C@@H](C(=O)N[C@@H](Cc3ccc4ccccc4c3)C(=O)N[C@H](C(=O)OC)Cc3ccc(cc3)OCc3cn2nn3)N(C(=O)[C@@H](NC(=O)[C@H](C)NC)C(C)(C)C)C1)C(C)(C)C
IC50 (cells): 310 nM

SMILES: CN[C@@H](C)C(=O)N[C@H](C(=O)N1C[C@@H]2C[C@H]1C(=O)N[C@@H](Cc1ccc3ccccc3c1)C(=O)N[C@H](C(=O)O)Cc1ccc(cc1)OCc1cn(nn1)[C@H]1C[C@@H](C(=O)N[C@@H](Cc3ccc4ccccc4c3)C(=O)N[C@H](c3nnn[nH]3)Cc3ccc(cc3)OCc3cn2nn3)N(C(=O)[C@@H](NC(=O)[C@H](C)NC)C(C)(C)C)C1)C(C)(C)C
IC50 (cells): 83 nM

SMILES: C=CCOc1ccc(C[C@H](NC(=O)[C@H](Cc2ccc3ccccc3c2)NC(=O)[C@@H]2C[C@H](n3cc(COc4ccc(C[C@H](NC(=O)[C@H](Cc5ccc6ccccc6c5)NC(=O)[C@@H]5C[C@H](CC=C)CN5C(=O)[C@@H](NC(=O)[C@H](C)NC)C(C)(C)C)NS(=O)(=O)C5CC5)cc4)nn3)CN2C(=O)[C@@H](NC(=O)[C@H](C)NC)C(C)(C)C)C(=O)O)cc1
IC50 (cells): > 1000 nM

SMILES: CN[C@@H](C)C(=O)N[C@H](C(=O)N1C[C@@H]2C[C@H]1C(=O)N[C@@H](Cc1ccc3ccccc3c1)C(=O)N[C@H](C(=O)OC)Cc1ccc(cc1)OCc1cn(nn1)[C@H]1C[C@@H](C(=O)N[C@@H](Cc3ccc4ccccc4c3)C(=O)N[C@H](C(=O)OC)Cc3ccc(cc3)OCc3cn2nn3)N(C(=O)[C@@H](NC(=O)[C@H](C)NC)C(C)(C)C)C1)C(C)(C)C
IC50 (cells): 690 nM

SMILES: CN[C@@H](C)C(=O)N[C@H](C(=O)N1C[C@@H]2C[C@H]1C(=O)N[C@@H](Cc1ccc3ccccc3c1)C(=O)N[C@H](NS(=O)(=O)C1CC1)Cc1ccc(cc1)OCc1cn(nn1)[C@H]1C[C@@H](C(=O)N[C@@H](Cc3ccc4ccccc4c3)C(=O)N[C@H](NS(=O)(=O)C3CC3)Cc3ccc(cc3)OCc3cn2nn3)N(C(=O)[C@@H](NC(=O)[C@H](C)NC)C(C)(C)C)C1)C(C)(C)C
half-life (in vivo [1]): 0.9 h
IC50 (cells): 79 nM
clearance (in vivo [5]): 3.6 mL/min/kg
Vd (in vivo [21]): 0.3 L/kg
AUC(0-t) at 7 h (in vivo [9]): 2.35 µM·h

These reach a lower IC50 (cells). Values come first.

IC50 (cells): 73 nM
Vd (in vivo [21]): 0.3 L/kg
solubility (physchem): 130 µg/mL (≈ 86.3 µM)
AUC (Mus musculus): 1.55 µM·h
SMILES: CN[C@@H](C)C(=O)N[C@H](C(=O)N1C[C@@H]2C[C@H]1C(=O)N[C@@H](Cc1ccc3ccccc3c1)C(=O)N[C@H](C(=O)O)Cc1ccc(cc1)OCc1cn(nn1)[C@H]1C[C@@H](C(=O)N[C@@H](Cc3ccc4ccccc4c3)C(=O)N[C@H](C(=O)O)Cc3ccc(cc3)OCc3cn2nn3)N(C(=O)[C@@H](NC(=O)[C@H](C)NC)C(C)(C)C)C1)C(C)(C)C

IC50 (cells): 51 nM
SMILES: CN[C@@H](C)C(=O)N[C@H](C(=O)N1C[C@H]2C/C=C/COc3ccc(cc3)C[C@@H](C(=O)O)NC(=O)[C@H](Cc3ccc4ccccc4c3)NC(=O)[C@@H]3C[C@@H](CN3C(=O)[C@@H](NC(=O)[C@H](C)NC)C(C)(C)C)n3cc(nn3)COc3ccc(cc3)C[C@@H](NS(=O)(=O)C3CC3)NC(=O)[C@H](Cc3ccc4ccccc4c3)NC(=O)[C@@H]1C2)C(C)(C)C

half-life (in vivo [1]): 1 h
IC50 (cells): 39 nM
clearance (in vivo [5]): 1.5 mL/min/kg
Vd (in vivo [21]): 0.1 L/kg
AUC(0-t) at 7 h (in vivo [9]): 5.85 µM·h
SMILES: CN[C@@H](C)C(=O)N[C@H](C(=O)N1C[C@@H]2C[C@H]1C(=O)N[C@@H](Cc1ccc3ccccc3c1)C(=O)N[C@H](NS(=O)(=O)C1CC1)Cc1ccc(cc1)OCc1cn(nn1)[C@H]1C[C@@H](C(=O)N[C@@H](Cc3ccc4ccccc4c3)C(=O)N[C@H](C(=O)O)Cc3ccc(cc3)OCc3cn2nn3)N(C(=O)[C@@H](NC(=O)[C@H](C)NC)C(C)(C)C)C1)C(C)(C)C

IC50 (cells): 23 nM
SMILES: CN[C@@H](C)C(=O)N[C@H](C(=O)N1C[C@H]2C/C=C/COc3ccc(cc3)C[C@@H](C(=O)NS(=O)(=O)C3CC3)NC(=O)[C@H](Cc3ccc4ccccc4c3)NC(=O)[C@@H]3C[C@H](C/C=C/COc4ccc(cc4)C[C@@H](C(=O)O)NC(=O)[C@H](Cc4ccc5ccccc5c4)NC(=O)[C@@H]1C2)CN3C(=O)[C@@H](NC(=O)[C@H](C)NC)C(C)(C)C)C(C)(C)C

half-life (in vivo [1]): 1.7 h
half-life (in vitro [2]): > 2 h
IC50 (cells): 19 nM
fraction unbound (in vitro [3]): 0.075
clearance (in vivo [5]): 2.1 mL/min/kg
AUC(0-t) at 7 h (in vivo [6]): 8.43 µM·h
solubility (physchem): 50 µg/mL (≈ 32.1 µM)
half-life (in vitro [7]): > 2 h
fraction unbound (in vitro [8]): 0.019
IC50 (HCT-116/VM46): 11 nM
AUC(0-t) at 7 h (in vivo [9]): 4.49 µM·h
fraction unbound (in vitro [10]): 0.024
half-life (in vivo [12]): 4.7 h
clearance (in vivo [13]): 6.2 mL/min/kg
fraction unbound (in vitro [14]): 0.058
half-life (in vitro [15]): 1.4 h
IC50 (HCT-116): 92 nM
clearance (in vivo [16]): 0.4 mL/min/kg
half-life (in vitro [17]): > 2 h
AUC(0-t) at 7 h (in vivo [18]): 1.71 µM·h
half-life (in vivo [19]): 1 h
SMILES: CN[C@@H](C)C(=O)N[C@H](C(=O)N1C[C@H]2CCCCOc3ccc(cc3)C[C@@H](C(=O)O)NC(=O)[C@H](Cc3ccc4ccccc4c3)NC(=O)[C@@H]3C[C@@H](CN3C(=O)[C@@H](NC(=O)[C@H](C)NC)C(C)(C)C)n3cc(nn3)COc3ccc(cc3)C[C@@H](NS(=O)(=O)C3CC3)NC(=O)[C@H](Cc3ccc4ccccc4c3)NC(=O)[C@@H]1C2)C(C)(C)C
inhibition in vivo at 2 mg/kg (animal or person [4]): 67%
TGI (A875): Active
inhibition at 30 um (hERG): 9%
inhibition in vivo at 5 mg/kg (animal or person [11]): > 100%
inhibition in vivo at 5 mg/kg (animal or person [20]): 80%

IC50 (cells): 15 nM
solubility (physchem): < 10 µg/mL
SMILES: CN[C@@H](C)C(=O)N[C@H](C(=O)N1C[C@H]2CCCCOc3ccc(cc3)C[C@@H](C(=O)NS(=O)(=O)C3CC3)NC(=O)[C@H](Cc3ccc4ccccc4c3)NC(=O)[C@@H]3C[C@H](CCCCOc4ccc(cc4)C[C@@H](C(=O)O)NC(=O)[C@H](Cc4ccc5ccccc5c4)NC(=O)[C@@H]1C2)CN3C(=O)[C@@H](NC(=O)[C@H](C)NC)C(C)(C)C)C(C)(C)C
